{"source": "patent US20220118170A1", "about": "“SYSTEMS, APPARATUS, AND METHODS FOR ADMINISTERING A SUBSTANCE” (Massachusetts Institute of Technology, priority 2015, published 2022)", "key": {"[1]": {"assay": "Effect of sonication on molecular structure (1H NMR)", "assay_type": "physicochemical", "conditions": "20 kHz ultrasound at highest intensity, 4 mg/mL in deuterated DMSO", "description": "Three biological replicates were performed. Unsonicated samples were used as the control. A Varian 500 (1H, 500 MHz) spectrometer was used to record 1H NMR spectra, then processed using Mnova NMR software (available from Mestralab Research, A Coruña, Spain). The 1H NMR spectra were referenced with residual non-deuterated solvent shifts (DMSO-d5=2.5 ppm). All shifts are reported in ppm. Note the disappearance of the volatile internal tetramethylsilane (TMS) standard after ultrasound treatment, which was carried out in an uncapped vial.\nDeuterium exchange occurs as labile protons on the analyte exchange with the deuterated solvent in which it is dissolved. Replacement of protons by deuterium results in loss of signal, shown either as a reduction in the integration fractions or disappearance of the peak altogether. Other indications of deuterium exchange include a slight broadening of peak shape, a shift in peak location, and slight change in J coupling values."}, "[2]": {"design": "species or system Yorkshire pigs", "conditions": "both, Yorkshire, pig, in vivo", "description": "Before every experiment, the animal was fasted overnight.\nIn step 1402, the subject's rectum is cleared, for example, with a tap water enema. In the study, a clean rectum was confirmed by colonoscopy prior to treatment.\nIn step 1404, a medicated enema is instilled.\nIn step 1406, ultrasound is applied. In the study, Control and Treatment tests were performed on separate days. For Treatment tests, the ultrasound treatment was applied using a 20 kHz horn for 2 minutes at a 50% duty cycle at an intensity of 7.5 W/cm^2. For Control tests, the ultrasound probe was inserted into the colon, but not turned on (n=16).\nIn step 1408, the tissue is biopsied for further assessment. Colonic areas treated with ultrasound were biopsied using endoscopic biopsy forceps (available from, e.g., US Endoscopy, Mentor, Ohio) for drug delivery evaluation as well as histological analysis (n=13).\nEach point represents one biological replicate (n=16 for Control, n=13 for Treatment).\nTissue was ground and mixed with phosphate buffered saline and precipitated with 10% trichloroacetic acid. The resulting supernatant was extracted with ethyl acetate. This extract was dried with anhydrous sodium sulfate, transferred to a glass tube, and evaporated to dryness under nitrogen. […] Finally, the sample was allowed to cool to room temperature and analyzed by GC/MS. […]"}, "[3]": {"test_system": "dextran sodium sulfate (DSS)-induced acute colitis", "assay": "Dextran sodium sulfate-induced murine colitis model, mesalamine enema with radial UMGID", "assay_type": "in vivo, C57BL/6 mice", "text": "Therefore, improvement in disease indices in this model as a result of ultrasound treatment would underscore the impact of UMGID. Given the colonic anatomy and the often circumferential nature of colitis involvement, it was hypothesized that radial UMGID would be most beneficial so as to direct the treatment over the largest area of inflamed tissue. […] The two bumps shown have a diameter of 3 mm and enhance radial ultrasound emission. […] Fifteen-week old, female C57BL/6 mice were purchased from Charles River Laboratories (Wilmington, Mass.) for the induction and treatment of dextran sodium sulfate (DSS)-induced colitis. Five animals were utilized per group. […] Each cage (group) was used as it was received and randomly assigned to experimental groups by the researchers performing the work. On day 1, blood was drawn from all mice and an initial weight of each animal was taken. Colitis was induced with 40-50 kDa dextran sulfate sodium salt (DSS) (available from, e.g., Affymetrix Inc., Santa Clara, Calif.). Starting on day 1, a 3% w/w DSS solution was administered in drinking water ad libitum. On days 3 and 5, the drinking solution was replaced with fresh DSS solution. […] The animals were monitored daily for weight, fecal consistency, and for the presence of fecal occult blood using Hemoccult cards (Beckman Coulter, Pasadena, Calif.). Fecal consistency and the presence of blood was scored based on previously published protocols. Specifically, stool consistency was scored as follows: (1) normal pellet-like feces, (2) pellet of stool easily crushed, (3) soft, watery stool with granules present, or (4) diarrhea. […] Animals with negative hemoccult results were scored (1). […] On day 14, a final weight was taken and fecal score assessed. […] Scores were determined according to previously published protocols with slight modification as follows in TABLE 3: Each tissue cross-section present on the microscope slide (n=2-6) was scored individually between 0-4 with a corresponding percentage involvement (rounded to the nearest quartile). […]"}, "[4]": {"test_system": "blood-glucose", "conditions": "swine, enema containing 100U insulin with 1-minute 20 kHz ultrasound", "quoted_text": "Both female and male Yorkshire pigs between 45-80 kg in weight were used for one study based on the availability of sex from the vendor. […] Before every experiment, the animal was fasted overnight. Sedation was induced with intramuscular injection of Telazol® tiletamine, 5 mg/kg (available from Zoetis, Inc., Florham, N.J.), xylazine 2 mg/kg, and atropine 0.04 mg/kg. The animal was then intubated and sedation maintained with isoflurane (1-3% inhaled).\nIn addition to the preparation noted above, a central venous catheter was placed in the femoral vein using the Seldinger technique to allow for frequent blood sampling. […] A real-time readout was achieved using a TRUEtrack® blood glucose meter (available from Nipro Diagnostics Inc., Fort Lauderdale, Fla.). The remaining blood sample was saved in a blood collection tube with sodium fluoride and ethylenediaminetetraacetic acid (EDTA) to minimize further glucose metabolism. All data shown represents the blood-glucose values quantified from the blood collection tubes, which was evaluated in a blinded fashion.\nThe blood-glucose was monitored for at least 40 minutes, depending on the experiment's effect on blood-glucose. When necessary, hypoglycemia was corrected with intravenous boluses of 50% dextrose (only needed when ultrasound treatment took place). […]"}, "[5]": {"test_system": "porcine small intestine", "assay": "Permeability in Side-Bi-Side diffusion cells", "assay_type": "in vitro ADME", "description": "Side-Bi-Side™ diffusion cells (available from PermeGear, Hellertown, Pa.) with inner diameters of 9 mm were used to determine permeability. Tissue was placed between the two chambers and clamped together with the luminal side facing the donor chamber. Stir bars were added to both the donor and receiver chambers and agitated using the Bell-ennium™ 9-position magnetic stirrer.\nThe donor solution consisted of 2 μCi/mL 3H-glucose and 2 μCi/mL 14C-labeled inulin. Each donor chamber was filled with 3 mL of this solution and the receiver solution was filled with 3 mL fresh PBS. At 10-minute intervals over the course of one hour,100 μL samples were taken from the receiver chamber and replaced with an equal volume of fresh PBS. Then, 15 mL of Hionic Fluor was added to these samples and analyzed for tritiated decomposition and 14C decomposition. Seven repeats were performed for the Control samples, and 17 for the Treated samples. […]\nThe only unknown in Equation 3 is the pore size in λ. Therefore, P may be determined experimentally for each permeant to estimate the membrane pore size. […]\nwhere A is the area of the membrane exposed to the permeant, Ci is the concentration of the permeant in the donor chamber, and dQi/dt is the slope of the plot of the permeant quantity in the receiver chamber versus time after the lag-phase. […]"}, "[6]": {"test_system": "colon tissue", "assay": "Ex vivo delivery of radiolabeled permeants in Franz diffusion cells, colon", "conditions": "colonic tissue, ultrasound treatment, on average", "quoted_text": "Solutions of the four compounds at a concentration of 1 mg/mL were prepared with a radiolabel content ranging from about 0.001% to about 2.5% depending on the stock solution's radiolabel content.\nGI tissue (e.g., tongue, esophagus, stomach, intestine, and colon tissue) from Yorkshire pigs was procured within 20 minutes of animal euthanization and stored at about 4° C. Drug delivery testing took place within 6 hours of euthanization. Upon delivery, the fresh porcine tissue was washed with PBS and excess fat was carefully dissected away. With the exception of tongue tissue, the full thickness of the tissue was used for testing. The tissue was sectioned into approximately 2 cm-by-2 cm pieces and kept hydrated with PBS. The variability in thickness of tongue tissue prevented mounting of the entire thickness in the diffusion chambers. […]\nLow-frequency (e.g., less than 100 kHz) ultrasound was utilized and administered directly to tissue and compared to controls consisting of untreated tissue. Delivery efficacy was assessed by quantifying the delivery of radiolabeled permeants into and through tissue utilizing Franz diffusion cells. […] Unless otherwise noted, delivered quantities represent the total amount of permeant delivered over this area. […]"}}}
{"molecule": "Nc1ccc(O)c(C(=O)O)c1", "note": "[mesalamine, 5-aminosalicylic acid]", "values": [{"measurement": "Molecular structure / chemical stability after sonication (1H NMR)", "setting": "[1]", "value": "chemical stability"}, {"measurement": "Drug content in tissue biopsies (limit of detection)", "setting": "[2]", "value": "< 50", "unit": "ng/g tissue"}, {"measurement": "Increase in delivery to tissue biopsies using ultrasound compared to tissue not treated", "setting": "[2]", "value": 22.4, "unit": "fold"}, {"measurement": "Total fecal score on day 14", "setting": "[3]; mesalamine enema alone QD", "value": "significantly elevated"}, {"measurement": "Total fecal score on day 14", "setting": "[3]; mesalamine enema with ultrasound treatment QD", "value": "below 4"}, {"measurement": "Total fecal score on day 14", "setting": "[3]; mesalamine enema with ultrasound treatment QOD", "value": "below 4"}]}
{"molecule": "insulin aspart", "values": [{"measurement": "Blood-glucose response", "setting": "[4]", "value": "robust hypoglycemic response"}]}
{"molecule": "inulin", "values": [{"measurement": "Permeability", "setting": "[5]; tissue not treated with ultrasound", "value": "0.227 ± 0.113", "unit": "×10⁻⁶ cm/s"}, {"measurement": "Average permeability", "setting": "[5]; ultrasound treated samples, 20 kHz for 2 minutes at 50% duty cycle", "value": "0.49 ± 0.227", "unit": "×10⁻⁶ cm/s"}, {"measurement": "Amount in the tissue compared to that in the receiver chamber", "setting": "[6]", "value": 90, "unit": "fold"}]}
